Measurements as given in patent publication US20090047246A1, “NOVEL INHIBITORS OF HEPATITIS C VIRUS REPLICATION” (InterMune, Inc., priority 2007, published 2009).

What follows are molecules tested against T1, HCV NS3 helicase (Hepatitis C virus genotype 1b, UniProt P26663) (assay: HCV Helicase Prompt FRET Assay (Example A)). Conditions: Table 31, compounds made using Schemes 38-45; read-out: IC50 Activity.
T1 construct: full-length NS3 (1-631), purified at Array BioPharma
T1 sequence (P26663 1027-1657): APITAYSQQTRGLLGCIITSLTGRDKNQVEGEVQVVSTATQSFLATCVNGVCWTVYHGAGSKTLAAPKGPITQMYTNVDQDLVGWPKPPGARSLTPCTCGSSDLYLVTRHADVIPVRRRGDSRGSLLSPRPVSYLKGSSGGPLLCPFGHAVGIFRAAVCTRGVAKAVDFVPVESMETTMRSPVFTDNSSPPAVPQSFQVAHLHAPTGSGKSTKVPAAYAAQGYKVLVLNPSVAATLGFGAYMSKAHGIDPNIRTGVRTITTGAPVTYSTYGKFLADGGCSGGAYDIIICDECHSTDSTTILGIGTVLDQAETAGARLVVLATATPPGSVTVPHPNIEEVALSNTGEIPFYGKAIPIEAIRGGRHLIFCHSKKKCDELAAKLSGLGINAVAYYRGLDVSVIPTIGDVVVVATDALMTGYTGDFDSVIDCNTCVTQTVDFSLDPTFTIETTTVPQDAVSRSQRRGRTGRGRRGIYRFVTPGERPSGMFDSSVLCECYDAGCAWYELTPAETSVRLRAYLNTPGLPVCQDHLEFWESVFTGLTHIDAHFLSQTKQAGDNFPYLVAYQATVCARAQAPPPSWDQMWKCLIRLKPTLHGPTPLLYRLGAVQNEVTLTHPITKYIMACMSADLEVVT
Type: biochemical
How it was run: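 Full-length NS3 (1-631), 5 or 6 nM, preincubated 5 min with compound, then unwinds 50 nM FAM/BHQ-1 duplex substrate with 250 nM capture strand and 300 μM ATP in 25 mM MOPS pH 7.0, 1.5 mM MgCl2, 0.005% Triton X-100, 2% DMSO. Fluorescence (485/535 nm) followed ~30 min at room temperature; IC50 from initial rates by 4- or 5-parameter fit.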
Work on `CC(C)Nc1cc(N)cc(-c2ccc3c(CC(=O)O)cn(Cc4csc5ccc(Cl)cc45)c3c2)c1` [Example 650] yielded an IC50 of less than 10 µM. Molecule `Nn1cc(-c2ccc3c(CC(=O)O)cn(Cc4csc5ccc(Cl)cc45)c3c2)c(=O)n(N)c1=O` [Example 651] has an IC50 greater than 50 µM. In the case of `Nn1c(=O)[nH]cc(-c2ccc3c(CC(=O)O)cn(Cc4csc5ccc(Cl)cc45)c3c2)c1=O` [Example 652], the IC50 is reported as 10 to 50 µM. `Nn1cc(-c2ccc3c(CC(=O)O)cn(Cc4csc5ccc(Cl)cc45)c3c2)c(=O)[nH]c1=O` [Example 653] gave an IC50 of 10 to 50 µM.

Same assay, conditions: Table 32, compounds made using Schemes 46-49; read-out: IC50 Activity
Work on `NC(=O)c1nc(N)sc1-c1ccc2c(CC(=O)O)cn(Cc3csc4ccc(Cl)cc34)c2c1` [Example 654] yielded an IC50 of less than 10 µM. In the case of `NC(=O)c1nc(N)sc1-c1ccc2c(CC(=O)O)cn(Cc3csc4ccc(Cl)cc34)c2c1` [Example 655], the IC50 is reported as 10 to 50 µM. With `Nc1ncc(-c2ccc3c(CC(=O)O)cn(Cc4csc5ccc(Cl)cc45)c3c2)s1` [Example 656] the IC50 was 10 to 50 µM. `CC(C)(C)OC(=O)Nc1ncc(-c2ccc3c(CC(=O)O)cn(Cc4csc5ccc(Cl)cc45)c3c2)s1` [Example 657] showed an IC50 of less than 10 µM. Work on `CC(C)(C)OC(=O)Nc1nnc(-c2ccc3c(CC(=O)O)cn(Cc4csc5ccc(Cl)cc45)c3c2)s1` [Example 658] yielded an IC50 of less than 10 µM. `CC(C)(C)OC(=O)Nc1nnc(-c2ccc3c(CC(=O)O)cn(Cc4csc5ccc(Cl)cc45)c3c2)s1` [Example 659] was tested, and the IC50 was 10 to 50 µM. Work on `Nc1nnc(-c2ccc3c(CC(=O)O)cn(Cc4csc5ccc(Cl)cc45)c3c2)s1` [Example 660] yielded an IC50 of 10 to 50 µM. In the case of `NC(=O)c1sccc1-c1ccc2c(CC(=O)O)cn(Cc3csc4ccc(Cl)cc34)c2c1` [Example 661], the IC50 is reported as 10 to 50 µM. Work on `O=C(O)Cc1cn(Cc2csc3ccc(Cl)cc23)c2cc(-c3c[nH]c(=O)[nH]c3=O)ccc12` [Example 662] yielded an IC50 of 10 to 50 µM. With `N#Cc1ccc2c(CC(=O)O)cn(Cc3csc4ccc(Cl)cc34)c2c1` [Example 663] the IC50 was 10 to 50 µM. `CC(C)c1ccc(Cn2c(C#N)c(CC(=O)O)c3ccccc32)cc1` [Example 664] gave an IC50 of 10 to 50 µM. Molecule `CC(C)c1ccc(Cn2c(C(N)=O)c(CC(=O)O)c3ccccc32)cc1` [Example 665] has an IC50 of 10 to 50 µM.

Same assay, conditions: Table 33, compounds made using Scheme 50; read-out: IC50 Activity
`Nc1cc(-c2ccc3c(CC(=O)O)cn(Cc4csc5ccc(Cl)cc45)c3c2)ncn1` [Example 666] was tested, and the IC50 was 10 to 50 µM. Molecule `Nc1ccnc(-c2ccc3c(CC(=O)O)cn(Cc4csc5ccc(Cl)cc45)c3c2)n1` [Example 667] has an IC50 of 10 to 50 µM. `O=C(O)Cc1cn(Cc2csc3ccc(Cl)cc23)c2cc(-c3ccc4nc[nH]c4c3)ccc12` [Example 668] gave an IC50 of 10 to 50 µM. Molecule `O=C(O)Cc1cn(Cc2csc3ccc(Cl)cc23)c2cc(-c3ccc4nn[nH]c4c3)ccc12` [Example 669] has an IC50 of 10 to 50 µM.

Same assay, conditions: Table 34, compounds made using Schemes 51-52; read-out: IC50 Activity
In the case of `Cc1cc([N+](=O)[O-])ccc1-n1cc(C(NC(=O)c2ccccc2)C(=O)O)c2ccccc21` (stereo not shown) [Example 670], the IC50 is reported as 10 to 50 µM. With `Cc1cc([N+](=O)[O-])ccc1-n1cc(C(NC(=O)C2CCCN2C(=O)OC(C)(C)C)C(=O)O)c2ccccc21` (stereo not shown) [Example 671] the IC50 was 10 to 50 µM. `Cc1cc([N+](=O)[O-])ccc1-n1cc(C(NC(=O)C2CCCN2)C(=O)O)c2ccccc21` (stereo not shown) [Example 672] gave an IC50 greater than 50 µM. `Cc1cc([N+](=O)[O-])ccc1-n1cc(C(NC(=O)C2CCN(C(=O)OC(C)(C)C)CC2)C(=O)O)c2ccccc21` (stereo not shown) [Example 673] was tested, and the IC50 was 10 to 50 µM. Work on `Cc1cc([N+](=O)[O-])ccc1-n1cc(C(NC(=O)C2CCNCC2)C(=O)O)c2ccccc21` (stereo not shown) [Example 674] yielded an IC50 greater than 50 µM. With `Cn1cc(CC(=O)O)c2ccc(-c3cc(N)cc(N)c3)cc21` [Example 675] the IC50 was greater than 50 µM. For `Nc1cc(N)cc(-c2ccc3c(CC(=O)O)cn(Cc4ccccc4)c3c2)c1` [Example 676], the IC50 was 10 to 50 µM. For `CC(C)c1ccc(Cn2cc(CC(=O)NO)c3ccccc32)cc1` [Example 677], the IC50 was 10 to 50 µM. Work on `O=C(O)Cc1cn(Cc2csc3ccccc23)c2ccc(Br)cc12` [Example 678] yielded an IC50 of 10 to 50 µM. `Nc1cc(N)cc(-c2ccc3c(CC(=O)O)cn(Cc4csc5ccccc45)c3c2)c1` [Example 679] showed an IC50 of less than 10 µM. With `Nc1cc(N)cc(-c2ccc3c(CC(=O)NOCc4ccccc4)cn(Cc4csc5ccc(Cl)cc45)c3c2)c1` [Example 680] the IC50 was less than 10 µM. `CC(C)(C)ONC(=O)Cc1cn(Cc2csc3ccc(Cl)cc23)c2cc(-c3cc(N)cc(N)c3)ccc12` [Example 683] was tested, and the IC50 was 10 to 50 µM. `CC(C)c1ccc(Cn2cc(C(Cc3ccccc3)C(=O)NO)c3cc(Br)ccc32)cc1` (stereo not shown) [Example 684] showed an IC50 of less than 10 µM. Molecule `CC(C)c1ccc(CC(C(=O)O)c2cn(Cc3ccc(C(C)C)cc3)c3ccc(Br)cc23)cc1` (stereo not shown) [Example 685] has an IC50 of less than 10 µM. `CC(C)c1ccc(Cn2cc(C(Cc3ccccc3)C(=O)NS(=O)(=O)C3CC3)c3cc(Br)ccc32)cc1` (stereo not shown) [Example 686] was tested, and the IC50 was less than 10 µM. Molecule `Nc1cc(-c2ccc3c(CC(=O)NS(=O)(=O)C4CC4)cn(Cc4csc5ccc(Cl)cc45)c3c2)cc([N+](=O)[O-])c1` [Example 687] has an IC50 of less than 10 µM. With `Nc1cc(N)cc(-c2ccc3c(CC(=O)NS(=O)(=O)C4CC4)cn(Cc4csc5ccc(Cl)cc45)c3c2)c1` [Example 688] the IC50 was less than 10 µM. Molecule `Nc1cc(-c2ccc3c(CC(=O)NOCc4ccccc4)cn(Cc4csc5ccc(Cl)cc45)c3c2)cc([N+](=O)[O-])c1` [Example 689] has an IC50 greater than 50 µM. Work on `Nc1cc(-c2ccc3c(CC(=O)NOC4CCCCO4)cn(Cc4csc5ccc(Cl)cc45)c3c2)cc([N+](=O)[O-])c1` (stereo not shown) [Example 690] yielded an IC50 greater than 50 µM. For `Nc1cc(-c2ccc3c(CC(=O)NO)cn(Cc4csc5ccc(Cl)cc45)c3c2)cc([N+](=O)[O-])c1` [Example 691], the IC50 was 10 to 50 µM. For `Nc1cc(N)cc(-c2ccc3c(CC(=O)NO)cn(Cc4csc5ccc(Cl)cc45)c3c2)c1` [Example 692], the IC50 was 10 to 50 µM. `COC(=O)C(=O)c1cn(Cc2csc3ccc(Cl)cc23)c2cc(Br)ccc12` [Example 693] was tested, and the IC50 was greater than 50 µM. `OCCc1cn(Cc2csc3ccc(Cl)cc23)c2cc(Br)ccc12` [Example 694] was tested, and the IC50 was greater than 50 µM. `CC(=O)OC1CCCN(c2ccc3ccn(Cc4csc5ccc(Cl)cc45)c3c2)C1` (stereo not shown) [Example 695] gave an IC50 of 10 to 50 µM. `COC(=O)C(=O)c1cn(Cc2csc3ccc(Cl)cc23)c2cc(N3CCCC(OC(C)=O)C3)ccc12` (stereo not shown) [Example 696] gave an IC50 of 10 to 50 µM. Work on `COC(=O)Cc1cn(Cc2csc3ccc(Cl)cc23)c2cc(N3CCCC(OC(C)=O)C3)ccc12` (stereo not shown) [Example 697] yielded an IC50 greater than 50 µM.

Same assay, conditions: Table 35, compounds made using Scheme 53; read-out: IC50 Activity
Molecule `Nc1cc(N)cc(-c2ccc3c(CC(=O)O)cn(Cc4csc5ccc(N)cc45)c3c2)c1` [Example 702] has an IC50 of 10 to 50 µM. `N#Cc1ccc2scc(Cn3cc(CC(=O)O)c4ccc(-c5cc(N)cc(N)c5)cc43)c2c1` [Example 703] showed an IC50 of 10 to 50 µM. Molecule `Cc1ccc2c(Cn3cc(CC(=O)O)c4ccc(-c5cc(N)cc(N)c5)cc43)cccc2n1` [Example 704] has an IC50 greater than 50 µM. `Nc1cc(N)cc(-c2ccc3c(CC(=O)O)cn(Cc4csc5ccc(F)cc45)c3c2)c1` [Example 705] gave an IC50 of less than 10 µM. `Cc1nn(-c2ccccc2)nc1Cn1cc(CC(=O)O)c2ccc(-c3cc(N)cc(N)c3)cc21` [Example 706] showed an IC50 of 10 to 50 µM. Molecule `Nc1cc(N)cc(-c2ccc3c(CC(=O)O)cn(Cc4cccc5sc(O)nc45)c3c2)c1` [Example 708] has an IC50 of 10 to 50 µM. `Nc1cc(N)cc(-c2ccc3c(CC(=O)O)cn(Cc4cccc(-c5cccc(Cl)c5)c4)c3c2)c1` [Example 709] gave an IC50 of 10 to 50 µM. `Nc1cc(N)cc(-c2ccc3c(CC(=O)O)cn(Cc4cc5cc(Cl)ccc5s4)c3c2)c1` [Example 710] gave an IC50 of less than 10 µM.

Same assay, conditions: Table 36, compounds made using Scheme 54; read-out: IC50 Activity
`CCOC(=O)Cc1cn(Cc2c(-c3ccccc3)sc3ccccc23)c2cc(-c3cc([N+](=O)[O-])cc([N+](=O)[O-])c3)ccc12` [Example 711] was tested, and the IC50 was 10 to 50 µM. With `CCOC(=O)Cc1cn(Cc2c(-c3ccccc3)sc3ccccc23)c2cc(-c3cc(N)cc(N)c3)ccc12` [Example 712] the IC50 was less than 10 µM. `Nc1cc(N)cc(-c2ccc3c(CC(=O)O)cn(Cc4c(-c5ccccc5)sc5ccccc45)c3c2)c1` [Example 713] gave an IC50 of less than 10 µM. With `CCOC(=O)Cc1cn(Cc2c(-c3cccc(Cl)c3)sc3ccccc23)c2cc(-c3cc([N+](=O)[O-])cc([N+](=O)[O-])c3)ccc12` [Example 714] the IC50 was 10 to 50 µM. Work on `Nc1cc(N)cc(-c2ccc3c(CC(=O)O)cn(Cc4c(-c5cccc(Cl)c5)sc5ccccc45)c3c2)c1` [Example 715] yielded an IC50 of less than 10 µM. Work on `CCOC(=O)Cc1cn(Cc2csc3ccc(OC(F)(F)F)cc23)c2cc(-c3cc([N+](=O)[O-])cc([N+](=O)[O-])c3)ccc12` [Example 717] yielded an IC50 of 10 to 50 µM. For `CCOC(=O)Cc1cn(Cc2csc3ccc(OC(F)(F)F)cc23)c2cc(-c3cc(N)cc(N)c3)ccc12` [Example 718], the IC50 was 10 to 50 µM. `Nc1cc(N)cc(-c2ccc3c(CC(=O)O)cn(Cc4csc5ccc(OC(F)(F)F)cc45)c3c2)c1` [Example 719] showed an IC50 of 10 to 50 µM. Work on `CCOC(=O)Cc1cn(Cc2c(CC)sc3ccc(Cl)cc23)c2cc(-c3cc([N+](=O)[O-])cc([N+](=O)[O-])c3)ccc12` [Example 720] yielded an IC50 greater than 50 µM. Work on `CCc1sc2ccc(Cl)cc2c1Cn1cc(CC(=O)O)c2ccc(-c3cc(N)cc(N)c3)cc21` [Example 721] yielded an IC50 of less than 10 µM. Work on `COc1cc(Cl)cc2c(Cn3cc(CC(=O)O)c4ccc(-c5cc(N)cc(N)c5)cc43)csc12` [Example 722] yielded an IC50 of 10 to 50 µM. With `Nc1cc(N)cc(-c2ccc3c(CC(=O)O)cn(Cc4csc5cc(Cl)c(F)cc45)c3c2)c1` [Example 723] the IC50 was less than 10 µM. `Nc1cc(N)cc(-c2ccc3c(CC(=O)O)cn(Cc4csc5c(Cl)c(Cl)ccc45)c3c2)c1` [Example 724] gave an IC50 of 10 to 50 µM. `Nc1cc(N)cc(-c2ccc3c(CC(=O)O)cn(Cc4csc5c(Cl)cccc45)c3c2)c1` [Example 725] was tested, and the IC50 was 10 to 50 µM. Molecule `Nc1cc(N)cc(-c2ccc3c(CC(=O)O)cn(Cc4csc5c(Cl)cc(F)cc45)c3c2)c1` [Example 726] has an IC50 of less than 10 µM. With `Nc1cc(N)cc(-c2ccc3c(CC(=O)O)cn(Cc4csc5cccc(Cl)c45)c3c2)c1` [Example 727] the IC50 was less than 10 µM.
